Experimental data published in patent US20210069295A1, “GALECTINS CONTROL MTOR IN RESPONSE TO ENDOMEMBRANE DAMAGE AND PROVIDE A MECHANISM AND TARGET FOR THE TREATMENT OF AUTOPHAGY-RELATED DISEASES” (STC. UNM, priority 2017, published 2021).
Peptide text beside a SMILES is read from it.

System: mTOR, Raptor, RagA, p14
Assay: APEX2 proximity biotinylation with streptavidin enrichment and immunoblotting in HEK293T cells
Type: cell-based
Details: for mTOR, Raptor and RagA found in the proximity of the galectin: APEX2-galectin fusions
Description: (A) Analysis of the puncta formation of galectins in response to GPN. HeLa cells overexpressing YFP-fused with the indicated galectins were treated with 100 μM GPN or without (Ctrl) in full medium for 1 h and galectin puncta were quantified by HC. […] White masks, algorithm defined cell boundaries (primary objects); green masks, computer-identified galectins puncta (target objects). Data, means±SEM, n≥3 independent experiments (500 primary objects counted per well; ≥5 wells/sample per each experiment); *p<0.05, **p<0.01, † p≥0.05, ANOVA. (B) Immunoprecipitation analysis of the interactions between galectins and mTOR or RagA GTPase. HEK293T cells overexpressing FLAG-tagged galectins were subjected to anti-FLAG immunoprecipitation followed by immunoblotting for endogenous mTOR or RagA. (C) Immunoprecipitation analysis of interactions between Gal8 and mTOR protein complexes in response to GPN treatment. THP-1 cells not treated or treated with 100 μM GPN in full medium for 1 h were subjected to immunoprecipitation with anti-Gal8 antibody, followed by immunoblotting for endogenous RagA, p14, mTOR or Raptor. (D) Analysis of the proximity of Gal8 to mTOR and other proteins in mTOR complexes in response to GPN. Biotinylated proteins from HEK293T cell expressing APEX2-vector or APEX2-Gal8, after GPN and biotin phenol (BP) treatment were affinity-enriched by binding to streptavidin-beads, and samples were analyzed by immunoblotting analysis for endogenous RagA, p14, mTOR or Raptor. Data, means±SEM, (n=3), **p<0.01, ANOVA. (E) Immunoprecipitation analysis of the interactions between Gal8 and RagA GTPase and its mutants. Lysates of HEK293T cells overexpressing FLAG-Gal8 and HA-tagged RagA proteins (RagAWT, RagAT21L or RagAQ66L) were subjected to anti-FLAG immunoprecipitation, followed by immunoblotting for HA-tagged RagA proteins. (F) Immunoprecipitation analysis of the interactions between Gal8 and RagC GTPase and its mutants. HEK293T cells overexpressing FLAG-Gal8 and HA-tagged RagC proteins (RagCWT, RagCS75L or RagCQ120L) lysates were subjected to anti-FLAG immunoprecipitation, followed by immunoblotting for HA-tagged RagC proteins.
HEK293T cells transfected with pJJiaDEST-APEX2 or pJJiaDEST-APEX2-Gal8 were incubated with 100 μM GPN (Cayman Chemicals) in full medium for 1 h (confluence of cells remained at 70-80%). Cells were next incubated in 500 μM biotin-phenol (AdipoGen) in full medium for the last 30 min of GPN incubation. A 1 min pulse with 1 mM H2O2 at room temperature was stopped with quenching buffer (10 mM sodium ascorbate, 10 mM sodium azide and 5 mM Trolox in Dulbecco's Phosphate Buffered Saline (DPBS)). All samples were washed twice with quenching buffer, and twice with DPBS.
For immunoblotting analysis, cell pellets were lysed with 500 μL ice-cold RIPA lysis buffer (ThermoFisher Scientific) with protease inhibitor cocktail (Roche), 1 mM PMSF (sigma), 10 mM sodium ascorbate, 10 mM sodium azide and 5 mM Trolox, gently pipetted and then the incubated for 30 min. The lysates were clarified by centrifugation at 13,000 rpm for 5 min, followed by measuring protein concentrations using a Pierce BCA Protein Assay kit, with freshly made bovine serum albumin (BSA) solutions as standards. Streptavidin-coated magnetic beads (ThermoFisher Scientific) were washed with RIPA lysis buffer. 3 mg of each sample was mixed with 100 μL of streptavidin beads. […] 15 μL of each sample was separated by SDS-PAGE and analyzed by Western blot using indicated antibodies.

| Compound | proximity of Gal8 to Ragulator (LAMTOR2/p14) and RagA (APEX2-Gal8 HEK293T, GPN) | proximity of Gal8 to mTOR and Raptor (APEX2-Gal8 HEK293T, GPN) | mTOR, Raptor and RagA found in the proximity of the galectin |
| --- | --- | --- | --- |
| NCC(=O)N[C@@H](Cc1ccccc1)C(=O)Nc1ccc2ccccc2c1 [GPN, glycyl-L-phenylalanine 2-naphththylamide] (HELM PEPTIDE1{G.F.[c1ccc2cc(N[*:1])ccc2c1]}$$$$V2.0) | increased proximity | decreased proximity | – |
| Gal8: protein of the galectin family encoded by the gene LGALS8; beta-galactoside-binding lectin | – | – | in the proximity |
| Gal9: beta-galactoside-binding lectin protein of the galectin family | – | – | not in the proximity |
